Laboratory results reported in patent EP1680415B1, “PYRROLIDINYL UREA DERIVATIVES AS ANGIOGENESIS INHIBITORS” (ABBOTT LABORATORIES, priority 2003, dated 2005).

Test system: HMVEC
Assay: human microvascular endothelial (HMVEC) migration assay
Assay type: cell-based
Settings: Inhibition of HMVEC migration, activators 15 ng/mL bFGF/VEGF, 4 hours at 37 °C, compared to a positive control; for inhibition at 0.001 µM / inhibition at 0.0001 µM / inhibition at 10 pM: Homo sapiens; for inhibition at 0.001 µM: 1 nM
Description: The human microvascular endothelial (HMVEC) migration assay was run according to the procedure of S. S. Tolsma, O. V. Volpert, D. J. Good, W. F. Frazier, P. J. Polverini and N. Bouck, J. Cell Biol. 122, 497-511 (1993).
The HMVEC migration assay was carried out using Human Microvascular Endothelial Cells-Dermal (single donor) and Human Microvascular Endothelial Cells, (neonatal). The BCE or HMVEC cells were starved overnight in DME containing 0.01% bovine serum albumin (BSA). Cells were then harvested with trypsin and resuspended in DME with 0.01 % BSA at a concentration of 1.5 X 10^6 cells per mL. Cells were added to the bottom of a 48 well modified Boyden chamber (Nucleopore Corporation, Cabin John, MD). The chamber was assembled and inverted, and cells were allowed to attach for 2 hours at 37 °C to polycarbonate chemotaxis membranes (5 µm pore size) that had been soaked in 0.01 % gelatin overnight and dried. The chamber was then reinverted, and test substances (total volume of 50 µL), including activators, 15 ng/mL bFGF/VEGF, were added to the wells of the upper chamber. The apparatus was incubated for 4 hours at 37 °C. Membranes were recovered, fixed and stained (Diff Quick, Fisher Scientific) and the number of cells that had migrated to the upper chamber per 3 high power fields counted. Background migration to DME + […] was subtracted and the data reported as the number of cells migrated per 10 high power fields (400X) or, when results from multiple experiments were combined, as the percent inhibition of migration compared to a positive control.

Molecule	inhibition at 0.0001 µM (0.1 nM) [%]	other results
CCC1CCCCN1C(=O)N[C@@H]1CCN(C(=O)c2ccc(C)nc2)C1 (stereo partly drawn) [Example 68, 2-ethyl-N-{(3R)-1-[(6-methylpyridin-3-yl)carbonyl]pyrrolidin-3-yl}piperidine-1-carboxamide]		inhibition at 0.001 µM: 46%
Cc1ccc(C(=O)N2CC[C@@H](NC(=O)N(CCC#N)C3CC3)C2)cn1 [Example 67, N-(2-cyanoethyl)-N-cyclopropyl-N'-{(3R)-1-[(6-methylpyridin-3-yl)carbonyl]pyrrolidin-3-yl}urea]	73	
CCOCCN1CCN(C(=O)N[C@@H]2CCN(C(=O)c3ccc(C)nc3)C2)CC1 [Example 77, 4-(2-ethoxyethyl)-N-{(3R)-1-[(6-methylpyridin-3-yl)carbonyl]pyrrolidin-3-yl}piperazine-1-carboxamide]	58	
Cc1ccc(C(=O)N2CC[C@@H](NC(=O)N(CCc3ccccc3)Cc3ccccc3)C2)cn1 [Example 54, N-benzyl-N'-{(3R)-1-[(6-methylpyridin-3-yl)carbonyl]pyrrolidin-3-yl}-N-(2-phenylethyl)urea]		inhibition at 0.001 µM: 78%
CCNC(=O)N[C@@H]1CCN(C(=O)c2ccc(C)nc2)C1 [Example 6, N-ethyl-N'-{(3R)-1-[(6-methyl-3-pyridinyl)carbonyl]-3-pyrrolidinyl}urea]	70	
Cc1ccc(C(=O)N2CC[C@@H](NC(=O)NCC3CC3)C2)cn1 [Example 17, N-(cyclopropylmethyl)-N'-{(3R)-1-[(6-methyl-3-pyridinyl)carbonyl]-3-pyrrolidinyl}urea]	76	
N-{(3R)-1-[(6-methyl-3-pyridinyl)carbonyl]-3-pyrrolidinyl}-N'-[2-(2-thienyl)ethyl]urea [Example 28]		% Inhibition @ 0.1 nM (0.1 nM): 86%
Cc1ccc(C(=O)N2CC[C@@H](NC(=O)NCc3ccccc3)C2)cn1 [Example 1, N-benzyl-N'-{(3R)-1-[(6-methylpyridin-3-yl)carbonyl]pyrrolidin-3-yl}urea]	80	
Cc1ccc(C(=O)N2CC[C@@H](NC(=O)N(Cc3ccccc3)C(C)C)C2)cn1 [Example 51, N-benzyl-N-isopropyl-N'-{(3R)-1-[(6-methylpyridin-3-yl)carbonyl]pyrrolidin-3-yl}urea]		inhibition at 0.001 µM: 60%
4-methyl-N-{(3R)-1-[(6-methylpyridin-3-yl)carbonyl]pyrrolidin-3-yl}-1,4-diazepane-1-carboxamide [Example 94]		% Inhibition @ 0.01 nM (0.01 nM): 57%
Cc1ccc(C(=O)N2CC[C@@H](NC(=O)N[C@@H](C)c3ccccc3)C2)cn1 [Example 33, N-((3R)-1-[(6-methylpyridin-3-yl)carbonyl]pyrrolidin-3-yl)-N'-[(1S)-1-phenylethyl]urea]	85	
Cc1ccc(C(=O)N2CC[C@@H](NC(=O)N(Cc3ccccc3)Cc3ccccc3)C2)cn1 [Example 53, N,N-dibenzyl-N'-{(3R)-1-[(6-methylpyridin-3-yl)carbonyl]pyrrolidin-3-yl} urea]	78	
Cc1ccc(C(=O)N2CC[C@@H](NC(=O)NCCc3c[nH]cn3)C2)cn1 [Example 4, N-[2-(1H-imidazol-4-yl)ethyl]-N'-{(3R)-1-[(6-methyl-3-pyridinyl)carbonyl]-3-pyrrolidinyl}urea]	69	
CCCN(CC)C(=O)N[C@@H]1CCN(C(=O)c2ccc(C)nc2)C1 [Example 63, N-ethyl-N'-{(3R)-1-[(6-methylpyridin-3-yl)carbonyl]pyrrolidin-3-yl}-N-propylurea]	72	
Cc1ccc(C(=O)N2CC[C@@H](NC(=O)N3CCC4(CC3)OCCO4)C2)cn1 [Example 87, N-{(3R)-1-[(6-methylpyridin-3-yl)carbonyl]pyrrolidin-3-yl}-1,4-dioxa-8-azaspiro[4.5]decane-8-carboxamide]	55	
Cc1ccc(C(=O)N2CC[C@@H](NC(=O)N(C)CC(C)C)C2)cn1 [Example 60, N-isobutyl-N-methyl-N'-{(3R)-1-[(6-methylpyridin-3-yl)carbonyl]pyrrolidin-3-yl}urea]	67	
COc1ccccc1N1CCN(C(=O)N[C@@H]2CCN(C(=O)c3ccc(C)nc3)C2)CC1 [Example 93, 4-(2-methoxyphenyl)-N-{(3R)-1-[(6-methylpyridin-3-yl)carbonyl]pyrrolidin-3-yl}piperazine-1-carboxamide]	72	

Molecule	inhibition at 0.0001 µM (0.1 nM) [%]	other results
Cc1ccc(C(=O)N2CC[C@@H](NC(=O)NCC3CCCCC3)C2)cn1 [Example 21, N-(cyclohexylmethyl)-N'-{(3R)-1-[(6-methyl-3-pyridinyl)carbonyl]-3-pyrrolidinyl}urea]	90	
C#CCNC(=O)N[C@@H]1CCN(C(=O)c2ccc(C)nc2)C1 [Example 16, N-{(3R)-1-[(6-methyl-3-pyridinyl)carbonyl]-3-pyrrolidinyl}-N'-2-propynylurea]	72	
Cc1ccc(C(=O)N2CC[C@@H](NC(=O)N3CCN(Cc4ccccc4)CC3)C2)cn1 [Example 58, 4-benzyl-N-{(3R)-1-[(6-methylpyridin-3-yl)carbonyl]pyrrolidin-3-yl}piperazine-1-carboxamide]	71	
Cc1ccc(C(=O)N2CC[C@@H](NC(=O)N3CCC(Cc4ccccc4)CC3)C2)c(Cl)n1 [Example 46, 4-benzyl-N-{(3R)-1-[(2-chloro-6-methylpyridin-3-yl)carbonyl]pyrrolidin-3-yl}piperidine-1-carboxamide]	99	
CCOC(=O)CN1CCN(C(=O)N[C@@H]2CCN(C(=O)c3ccc(C)nc3)C2)CC1 [Example 95, ethyl {4-[({(3R)-1-[(6-methylpyridin-3-yl)carbonyl]pyrrolidin-3-yl}amino)carbonyl]piperazin-1-yl} acetate]		inhibition at 10 pM (0.01 nM): 62%
CCCN(C)C(=O)N[C@@H]1CCN(C(=O)c2ccc(C)nc2)C1 [Example 59, N-methyl-N'-{(3R)-1-[(6-methylpyridin-3-yl)carbonyl]pyrrolidin-3-yl}-N-propylurea]	93	
CCOCCNC(=O)N[C@@H]1CCN(C(=O)c2ccc(C)nc2)C1 [Example 13, N-(2-ethoxyethyl)-N'-{(3R)-1-[(6-methyl-3-pyridinyl)carbonyl]-3-pyrrolidinyl}urea]	83	
Cc1ccc(C(=O)N2CC[C@@H](NC(=O)NCCCN3CCOCC3)C2)cn1 [Example 3, N-{(3R)-1-[(6-methyl-3-pyridinyl)carbonyl]-3-pyrrolidinyl}-N'-[3-(4-morpholinyl)propyl]urea]	60	
Cc1ccc(C(=O)N2CC[C@@H](NC(=O)NCC(C)C)C2)cn1 [Example 7, N-isobutyl-N'-{(3R)-1-[(6-methyl-3-pyridinyl)carbonyl]-3-pyrrolidinyl}urea]	90	
Cc1ccc(C(=O)N2CC[C@@H](NC(=O)N3CCN(c4ccccc4F)CC3)C2)cn1 [Example 91, 4-(2-fluorophenyl)-N-{(3R)-1-[(6-methylpyridin-3-yl)carbonyl]pyrrolidin-3-yl}piperazine-1-carboxamide]		inhibition at 10 pM (0.01 nM): 57%
CCN(Cc1ccccc1)C(=O)N[C@@H]1CCN(C(=O)c2ccc(C)nc2)C1 [Example 50, N-benzyl-N-ethyl-N'-{(3R)-1-[(6-methylpyridin-3-yl)carbonyl]pyrrolidin-3-yl} urea]	76	
Cc1ccc(C(=O)N2CC[C@@H](NC(=O)NCCCOC(C)C)C2)cn1 [Example 26, N-(3-isopropoxypropyl)-N'-{(3R)-1-[(6-methyl-3-pyridinyl)carbonyl]-3-pyrrolidinyl}urea]	75	
CCN(CC)CCN(C)C(=O)N[C@@H]1CCN(C(=O)c2ccc(C)nc2)C1 [Example 49, N-[2-(diethylamino)ethyl]-N-methyl-N'-{(3R)-1-[(6-methylpyridin-3-yl)carbonyl]pyrrolidin-3-yl}urea]	65	
CCN(CCOC)C(=O)N[C@@H]1CCN(C(=O)c2ccc(C)nc2)C1 [Example 71, N-ethyl-N-(2-methoxyethyl)-N'-{(3R)-1-[(6-methylpyridin-3-yl)carbonyl]pyrrolidin-3-yl}urea]	53	
Cc1ccc(C(=O)N2CC[C@@H](NC(=O)N3CCCCCC3)C2)cn1 [Example 70, N-{(3R)-1-[(6-methylpyridin-3-yl)carbonyl]pyrrolidin-3-yl}azepane-1-carboxamide]	97	
Cc1ccc(C(=O)N2CC[C@@H](NC(=O)NCCC(c3ccccc3)c3ccccc3)C2)cn1 [Example 31, N-(3,3-diphenylpropyl)-N'-{(3R)-1-[(6-methyl-3-pyridinyl)carbonyl]-3-pyrrolidinyl}urea]	79	
CCCN(CCOC)C(=O)N[C@@H]1CCN(C(=O)c2ccc(C)nc2)C1 [Example 72, N-(2-methoxyethyl)-N'-{(3R)-1-[(6-methylpyridin-3-yl)carbonyl]pyrrolidin-3-yl}-N-propylurea]	89	
